For 33 compounds, IC50 results are on record in BindingDB's records for doi:10.1021/jm5006226 (Bristol Myers Squibb, 2014).

A short description of this assay: Antagonist activity at P2Y1 receptor in platelet-enriched human plasma assessed as 10 uM ADP-induced platelet aggregation preincubated for 1 min followed by ADP induction measured at 5 mins by aggregometric analysis.

For `CC(C)(C)CN1CCC2(CC1)CN(c1ccccc1NC(=O)Nc1nc3ccc(Cl)nc3s1)c1c(O)ccc(Cl)c12`, the IC50 was 130 nM.
To `CC(C)(C)CN1CCC2(CC1)CN(c1ccccc1NC(=O)Nc1nc3ccc(Cl)nc3s1)c1c(O)cc(F)c(-c3ccc(F)cc3)c12` belongs 180 nM; to `CC1(C)CN(c2ccccc2NC(=O)Nc2ccc(OC(F)(F)F)cc2)c2c(O)cc(F)c(-c3ccc(Cl)cc3)c21`, 240 nM.
As for `CC1(C)CN(c2ccccc2NC(=O)Nc2ccc(OC(F)(F)F)cc2)c2c(O)cc(F)c(-c3ccc(Cl)s3)c21`, the IC50 was 130 nM.
In the case of `CC1(C)CN(c2ccccc2NC(=O)Nc2ccc(OC(F)(F)F)cc2)c2c(O)cc(F)c(-c3ccc(C(F)(F)F)cn3)c21` it was 110 nM; in that of `CC1(C)CN(c2ccccc2NC(=O)Nc2ccc(OC(F)(F)F)cc2)c2c(O)cc(F)c(-c3ccc(C(F)(F)F)nc3)c21`, 150 nM.
To `CC1(C)CN(c2ccccc2NC(=O)Nc2ccc(OC(F)(F)F)cc2)c2c(O)cc(F)c(-c3cc(F)nc(F)c3)c21` belongs 160 nM; to `CC1(C)CN(c2ccccc2NC(=O)Nc2ccc(OC(F)(F)F)cc2)c2c(O)cc(F)c(-c3ncc(F)cn3)c21`, 950 nM; to `CC(C)(C)CN1CCC2(CC1)CN(c1ccccc1NC(=O)Nc1ccc(OC(F)(F)F)cc1)c1c(O)cc(F)c(-c3ccc(Cl)cc3)c12`, 200 nM.
To `CC(C)(C)CN1CCC2(CC1)CN(c1ccccc1NC(=O)Nc1ccc(OC(F)(F)F)cc1)c1c(O)cc(F)c(-c3ccc(F)cc3)c12` belongs 140 nM; to `CC1(C)CN(c2ccccc2NC(=O)Nc2nc3ccc(Cl)nc3s2)c2c(O)ccc(Cl)c21`, 1400 nM; to `CC1(C)CN(c2ccccc2NC(=O)Nc2ccc(OC(F)(F)F)cc2)c2c(O)ccc(Cl)c21`, 870 nM.
For the compound `CC1(CC(F)(F)F)CN(c2ccccc2NC(=O)Nc2ccc(OC(F)(F)F)cc2)c2c(O)ccc(Cl)c21` (stereo not drawn), the IC50 worked out at 2900 nM.
In the case of `CCOC(=O)C1(C)CN(c2ccccc2NC(=O)Nc2ccc(OC(F)(F)F)cc2)c2c(O)ccc(Cl)c21` (stereo not drawn) it was 3100 nM.
For the compound `CCOC(=O)C1(C)CN(c2ccccc2NC(=O)Nc2nc3ccc(Cl)nc3s2)c2c(O)ccc(Cl)c21` (stereo not drawn), the IC50 came to 610 nM.
In the case of `CC1(C)CN(c2ccccc2NC(=O)Nc2ccc(OC(F)(F)F)cc2)c2c(O)ccc(-c3ccccc3)c21` it was 180 nM; in that of `CC1(C)CN(c2ccccc2NC(=O)Nc2ccc(OC(F)(F)F)cc2)c2c(O)ccc(-c3ccccc3F)c21`, 80 nM; in that of `CC1(C)CN(c2ccccc2NC(=O)Nc2ccc(OC(F)(F)F)cc2)c2c(O)ccc(-c3cccc(F)c3)c21`, 240 nM.
In the case of `CC1(C)CN(c2ccccc2NC(=O)Nc2ccc(OC(F)(F)F)cc2)c2c(O)ccc(-c3ccc(F)cc3)c21` it was 160 nM; in that of `CC1(C)CN(c2ccccc2NC(=O)Nc2ccc(OC(F)(F)F)cc2)c2c(O)ccc(-c3ccc(Cl)cc3)c21`, 210 nM.
As to `CC1(C)CN(c2ccccc2NC(=O)Nc2ccc(OC(F)(F)F)cc2)c2c(O)ccc(-c3ccc(C(F)(F)F)cc3)c21`, the IC50 was 230 nM.
To `CC1(C)CN(c2ccccc2NC(=O)Nc2ccc(OC(F)(F)F)cc2)c2c(O)ccc(-c3ccc(F)cc3F)c21` belongs 160 nM; to `CC1(C)CN(c2ccccc2NC(=O)Nc2ccc(OC(F)(F)F)cc2)c2c(O)ccc(-c3ccc(F)c(F)c3)c21`, 400 nM; to `CC1(C)CN(c2ccccc2NC(=O)Nc2ccc(OC(F)(F)F)cc2)c2c(O)ccc(-c3cc(F)cc(F)c3)c21`, 180 nM.
On to `CC1(C)CN(c2ccccc2NC(=O)Nc2nc3ccc(Cl)nc3s2)c2c(O)ccc(-c3ccc(F)cc3)c21`, for which the IC50 came to 230 nM.
In the case of `CC1(C)CN(c2ccccc2NC(=O)Nc2csc(Cl)n2)c2c(O)ccc(-c3ccc(F)cc3)c21` it was 90 nM; in that of `Cc1nc(NC(=O)Nc2ccccc2N2CC(C)(C)c3c(-c4ccc(F)cc4)ccc(O)c32)cs1`, 430 nM; in that of `CC(C)CN1CCCC1c1ccc(NC(=O)Nc2ccccc2N2CC(C)(C)c3c(-c4ccc(F)cc4)ccc(O)c32)cc1` (stereo not drawn), 50 nM.
To `CC(C)(C)CN1CCCC1c1ccc(NC(=O)Nc2ccccc2N2CC(C)(C)c3c(-c4ccc(F)cc4)ccc(O)c32)cc1` (stereo not drawn) belongs 90 nM.
In the case of `CC1(C)CN(c2ccccc2NC(=O)Nc2ccc(OC(F)(F)F)cc2)c2c(O)cc(F)c(-c3ccc(F)cc3)c21` it was 190 nM; in that of `CC1(C)CN(c2ccccc2NC(=O)Nc2ccc(OC(F)(F)F)cc2)c2c(O)c(F)cc(-c3ccc(F)cc3)c21`, 390 nM.
In the case of `CC1(C)CN(c2ccccc2NC(=O)Nc2ccc(OC(F)(F)F)cc2)c2c(O)c(F)cc(-c3ccc(Cl)cc3)c21`, the IC50 was 300 nM.
In the case of `CC1(C)CN(c2ccccc2NC(=O)Nc2ccc(OC(F)(F)F)cc2)c2c(O)cc(F)c(-c3cnc(Cl)cn3)c21` it was 260 nM.

As usually defined, the IC50 is the midpoint of a concentration-inhibition curve.
